Data reported in patent US20260224632A1, “USE OF A COMPOSITION COMPRISING A NEO-SYNTHESIZED EXTRACELLLAR MATRIX FOR THE TREATMENT OF CANCER, IN PARTICULAR FOR THE INHIBITION OF CANCER VIABILITY, MIGRATION, AND PROLIFERATION” (NOVADIP BIOSCIENCES, priority 2023, published 2026).

Assays:
[1] = test system: human bone marrow mesenchymal stem cells (hBM-MSCs); assay: CCK-8 viability assay; format: cell-based; settings: hBM-MSCs (non-tumor); 72 h; NVDM2 7 and 15 mg per well; doxorubicin 0.1 uM
Method: (§1) Doxorubicin (0.1 uM) was used as a positive control treatment and gelatin beads alone were used for comparison with NVDM2 treatment. All treatments were carried out in 96-well plates in transwells. The compositions of the invention (NVDM2) were administered in two different doses: 7 mg and 15 mg per well. The viability was measured using CCK-8 viability bioassay at 72 hours after administration. […] Data represent the mean±s.d. values of % cell viability upon treatment normalized to the respective untreated sample. Blue line represents 100% of viability. Statistical significances between treated vs untreated samples at the respective time point were tested by ANOVA-I. *, p≤0.05; **; p≤0.01, ***; p≤0.001; ns, not significant. Blue dots: values of individual batches (biological replicates). Each chart represents the average value of the data from all batches tested. DS: lyophilized non irradiated powder of NVDM2; DP: lyophilized powder of NVDM2 after irradiation.
(§2) For this assay the Cell Counting Kit-8 Kit was used (Sigma-Aldrich). […] This coloured product (formazan) is measured using a spectrophotometer. […]
(§3) After O/N incubation, the medium was removed, and the cells were incubated for 72 h in the presence of the different doses of the test item. […] The plate was incubated at 37° C. for 2 hour and then absorbance at 450 nm was measured.

[2] = test system: adult human dermal fibroblasts (HDFa); assay: CCK-8 viability assay; format: cell-based; settings: HDFa (non-tumor); 72 h; NVDM2 7 and 15 mg per well; doxorubicin 0.1 uM
Method: as §1, §2, §3

SMILES: COc1cccc2c1C(=O)c1c(O)c3c(c(O)c1C2=O)C[C@@](O)(C(=O)CO)C[C@@H]3O[C@H]1C[C@H](N)[C@H](O)[C@H](C)O1 [doxorubicin, Doxorubicin]
- % cell viability normalized to untreated (CCK-8) [1]: significant inhibitory impact
- % cell viability normalized to untreated (CCK-8) [2]: significant inhibitory impact
